# Test system: E-cadherin expression in SW620 cells
# Test: E-cadherin expression, in-cell Western (ICW), SW620 cells
# Type: cell-based
# Settings: for fold induction at 10 µM: SW-620, 24 h; for EC50: inducement of E-cadherin expression in SW620 cells
# Experimental: SW620 and H520 cells (5×10^4/100 μL) were seeded in a 96-well plate prior to treatment. Cells were treated with 10 μM concentration of synthesized compound in quadruplicate for 24 hours in RPMI 1640 supplemented medium and 100 μg/mL penicillin-streptomycin. The cells were then fixed with 100% methanol for 20 minutes at 4° C. The wells were then washed 2 times with PBS, permeabilized in 2% bovine serum albumin (BSA) and 0.2% TritonX-100 in PBS for 30 minutes at room temperature with gentle agitation, and blocked in LI-COR blocking buffer for 30 minutes at room temperature with gentle agitation. The cells were then incubated with the following primary antibodies: anti-E-Cadherin (1:500) and anti-α-Tubulin (1:1000) diluted in blocking buffer (1:1 dilution in PBS) for 2 hours at room temperature with gentle agitation. The cells were washed 4 times in PBS-T for 5 minutes each, and then incubated with the following secondary antibodies conjugated to a fluorescent entity: IRDye 800-conjugated goat anti-rabbit IgG (1:1000) and IRDye-700-conjugated goat anti-mouse IgG (1:2000) in blocking buffer (1:1 dilution in PBS) with gentle agitation for 1 h at room temperature. The cells were washed 4 times in PBS-T for 5 minutes each followed by a single wash with PBS. All liquid was removed from the wells and the plates were visualized and analyzed on the Odyssey IR imaging system (LI-COR Biosciences).
# The assay was further optimized in the following manner. The cells were washed 2 times with PBS, fixed in 100% methanol at room temperature for 15 minutes, and again washed 2 times with PBS. The cells were then incubated with the following primary antibodies: anti-E-Cadherin (1:200) and anti-α-Tubulin (1:2000) diluted in ice cold 2% bovine serum albumin (BSA) and 0.2% TritonX-100 in PBS for 1 hour at room temperature with gentle agitation. The cells were washed 2 times in PBS and then incubated with the following secondary antibodies conjugated to a fluorescent entity: Licor 800-conjugated goat anti-rabbit IgG (1:2000) and IRDye-700-conjugated goat anti-mouse IgG (1:2000) in ice cold 2% BSA and 0.2% TritonX-100 in PBS with gentle agitation for 45 minutes at room temperature. The wells were washed 2 times in PBS, dried, and analyzed as previously mentioned.
# N-Acetamidoalkyl-5-arylisoxazole-3-carboxamide analogs were synthesized as described above. Changes in expression level of E-cadherin in response to 10 μM compound in SW620 cells was determined in a cell-based functional assay as described above, and the data are shown in Table III. The compound number corresponds to the compound numbers used in Table II.
# EC50 of inducement of E-cadherin expression in SW620 cells was determined in a cell-based functional assay as described above, and the data are shown in Table V. The compound number corresponds to the compound numbers used in Table IV.
# [1] = Homo sapiens, change in expression level of E-cadherin in response to 10 μM compound, 24 hours, SW620 cells
Molecule,fold induction at 10 µM [1],also measured
"COc1ncccc1C(=O)NCCCNC(=O)c1cc(-c2cccs2)on1 [Compound 52, N-(3-(2-methoxynicotinamido)propyl)-5-(thiophen-2-yl)isoxazole-3-carboxamide]",3.99,–
"Cc1noc(C(=O)NCCCNC(=O)c2cc(-c3cccs3)on2)n1 [Compound 78, 3-methyl-N-(3-(5-(thiophen-2-yl)isoxazole-3-carboxamido)propyl)-1,2,4-oxadiazole-5-carboxamide]",1.97,–
"O=C(NCCCNC(=O)c1cccc(C(F)(F)F)n1)c1cc(-c2ccccc2)on1 [Compound 120, 5-phenyl-N-(3-(6-(trifluoromethyl)picolinamido)propyl)isoxazole-3-carboxamide]",3.08,–
"COc1ccc(C(=O)NCCCNC(=O)c2cc(-c3cccs3)on2)c(OC)n1 [Compound 43, N-(3-(2,6-dimethoxynicotinamido)propyl)-5-(thiophen-2-yl)isoxazole-3-carboxamide]",1.45,–
"O=C(NCCCNC(=O)c1cc(-c2cccs2)on1)c1cncc(F)c1 [Compound 54, N-(3-(5-fluoronicotinamido)propyl)-5-(thiophen-2-yl)isoxazole-3-carboxamide]",2.22,–
"O=C(NCCCNC(=O)c1cc2ccccc2o1)c1cc(-c2cccs2)on1 [Compound 85, N-(3-(benzofuran-2-carboxamido)propyl)-5-(thiophen-2-yl)isoxazole-3-carboxamide]",3.26,–
"O=C(NCCCNC(=O)c1cc(-c2ccccc2)on1)c1ccc(O)cn1 [Compound 58, N-(3-(5-hydroxypicolinamido)propyl)-5-phenylisoxazole-3-carboxamide]",3.57,–
"O=C(NCCCNC(=O)c1cccs1)c1cc(-c2cccs2)on1 [Compound 75, 5-(thiophen-2-yl)-N-(3-(thiophene-2-carboxamido)propyl)isoxazole-3-carboxamide]",3.05,–
"O=C(NCCCNC(=O)c1cnc2ccccn12)c1cc(-c2ccccc2)on1 [Compound 87, N-(3-(imidazo[1,2-a]pyridine-3-carboxamido)propyl)-5-phenylisoxazole-3-carboxamide]",2.4,–
"Cc1cncc(C(=O)NCCCNC(=O)c2cc(-c3ccccc3)on2)n1 [Compound 111, N-(3-(6-methylpyrazine-2-carboxamido)propyl)-5-phenylisoxazole-3-carboxamide]",4.13,"EC50 (Homo sapiens, SW-620): 7.2 µM"
"N[C@@H](Cc1ccccc1)C(=O)NCCNC(=O)c1cc(-c2ccccc2)on1 [Compound 23, (S)—N-(2-(2-amino-3-phenylpropanamido)ethyl)-5-phenylisoxazole-3-carboxamide]",0.84,–
"O=C(NCCCNC(=O)c1ncccc1F)c1cc(-c2cccs2)on1 [Compound 44, N-(3-(3-fluoropicolinamido)propyl)-5-(thiophen-2-yl)isoxazole-3-carboxamide]",3.36,–
"Cc1ccc(C(=O)NCCCNC(=O)c2cc(-c3ccccc3)on2)c(O)n1 [Compound 63, N-(3-(2-hydroxy-6-methylnicotinamido)propyl)-5-phenylisoxazole-3-carboxamide]",4.59,"EC50 (Homo sapiens, SW-620): 5.64 µM"
"O=C(NCCCNC(=O)c1cncc(Cl)n1)c1cc(-c2cccs2)on1 [Compound 83, N-(3-(6-chloropyrazine-2-carboxamido)propyl)-5-(thiophen-2-yl)isoxazole-3-carboxamide]",2.64,–
"O=C(NCCNC(=O)c1cc(-c2ccccc2)on1)c1cccc(O)c1 [Compound 8, N-(2-(3-hydroxybenzamido)ethyl)-5-phenylisoxazole-3-carboxamide]",2.44,–
"N#Cc1ccnc(C(=O)NCCCNC(=O)c2cc(-c3cccs3)on2)c1 [Compound 82, N-(3-(4-cyanopicolinamido)propyl)-5-(thiophen-2-yl)isoxazole-3-carboxamide]",2.8,–

Molecule,fold induction at 10 µM [1],also measured
"Cc1ccnc(O)c1C(=O)NCCCNC(=O)c1cc(-c2cccs2)on1 [Compound 51, N-(3-(2-hydroxy-4-methylnicotinamido)propyl)-5-(thiophen-2-yl)isoxazole-3-carboxamide]",2.73,–
"O=C(NCCCNC(=O)c1ccc2ccccc2n1)c1cc(-c2ccccc2)on1 [Compound 86, 5-phenyl-N-(3-(quinoline-2-carboxamido)propyl)isoxazole-3-carboxamide]",3.48,–
"O=C(NCCCNC(=O)c1nccs1)c1cc(-c2ccccc2)on1 [Compound 35, 5-phenyl-N-(3-(thiazole-2-carboxamido)propyl)isoxazole-3-carboxamide]",2.61,–
"Cc1cncc(C(=O)NCCCNC(=O)c2cc(-c3cccs3)on2)n1 [Compound 97, N-(3-(6-methylpyrazine-2-carboxamido)propyl)-5-(thiophen-2-yl)isoxazole-3-carboxamide]",3.82,–
"N[C@@H](Cc1c[nH]c2ccccc12)C(=O)NCCCNC(=O)c1cc(-c2ccccc2)on1 [Compound 32, (S)—N-(3-(2-amino-3-(1H-indol-3-yl)propanamido)propyl)-5-phenylisoxazole-3-carboxamide]",2.7,–
"O=C(NCCCNC(=O)c1cc(Br)cnc1O)c1cc(-c2ccccc2)on1 [Compound 68, N-(3-(5-bromo-2-hydroxynicotinamido)propyl)-5-phenylisoxazole-3-carboxamide]",1.61,–
"O=C(NCCCNC(=O)c1cnccc1O)c1cc(-c2ccccc2)on1 [Compound 30, N-(3-(4-hydroxynicotinamido)propyl)-5-phenylisoxazole-3-carboxamide]",2.69,–
"Cc1ccc(C(=O)NCCCNC(=O)c2cc(-c3cccs3)on2)c(O)n1 [Compound 46, N-(3-(2-hydroxy-6-methylnicotinamido)propyl)-5-(thiophen-2-yl)isoxazole-3-carboxamide]",3.48,–
"O=C(NCCCNC(=O)c1cc(-c2ccccc2)on1)c1ccnc(O)c1 [Compound 64, N-(3-(2-hydroxyisonicotinamido)propyl)-5-phenylisoxazole-3-carboxamide]",1.8,–
"O=C(NCCCNC(=O)c1cc(-c2ccccc2)on1)c1cscn1 [Compound 33, 5-phenyl-N-(3-(thiazole-4-carboxamido)propyl)isoxazole-3-carboxamide]",3.7,–
"O=C(NCCCNC(=O)c1cncc(Cl)n1)c1cc(-c2ccccc2)on1 [Compound 94, N-(3-(6-chloropyrazine-2-carboxamido)propyl)-5-phenylisoxazole-3-carboxamide]",3.69,–
"O=C(NCCCNC(=O)c1cccc(Cl)n1)c1cc(-c2ccccc2)on1 [Compound 92, N-(3-(6-chloropicolinamido)propyl)-5-phenylisoxazole-3-carboxamide]",3.13,–
N-(3-(5-chlorofuran-2-carboxamido)propyl)-5-phenylisoxazole-3-carboxamide [Compound 113],–,"fold change SW620 ICW (change in expression level of E-cadherin in response to 10 μM compound, 24 hours, SW620 cells): 4.09 fold; EC50: 4.59 µM"
"Cc1ncccc1C(=O)NCCCNC(=O)c1cc(-c2ccccc2)on1 [Compound 65, N-(3-(2-methylnicotinamido)propyl)-5-phenylisoxazole-3-carboxamide]",2.05,–
"Nc1cccc(C(=O)NCCCNC(=O)c2cc(-c3ccccc3)on2)c1 [Compound 15, N-(3-(3-aminobenzamido)propyl)-5-phenylisoxazole-3-carboxamide]",3.94,–

# Reference: US9783510B2, “Small molecule mediated transcriptional induction of E-cadherin” (Vanderbilt University, priority 2014, dated 2017)
